Measured values published in patent US6448269B1 (Eli Lilly and Company, priority 1993, dated 2002).
Where a name gives a salt, the structure may show the parent alone.

Experiments:
GPIIb-IIIa = molecular target: T1, GPIIb-IIIa (Homo sapiens, UniProt P05106+P08514); assay: ELISA IIb-IIIa assay (fibrinogen binding to immobilized GPIIb-IIIa); details: purified platelet GPIIb-IIIa receptor coated on ELISA plates; biotin-labeled fibrinogen 10 nM, 3 hours at 25° C.
T1 construct: Purified platelet GPIIb-IIIa receptor was prepared as described by Fitzgerald; from tissue; host or cells: platelets
T1 sequence (P08514 32-887 limits assumed): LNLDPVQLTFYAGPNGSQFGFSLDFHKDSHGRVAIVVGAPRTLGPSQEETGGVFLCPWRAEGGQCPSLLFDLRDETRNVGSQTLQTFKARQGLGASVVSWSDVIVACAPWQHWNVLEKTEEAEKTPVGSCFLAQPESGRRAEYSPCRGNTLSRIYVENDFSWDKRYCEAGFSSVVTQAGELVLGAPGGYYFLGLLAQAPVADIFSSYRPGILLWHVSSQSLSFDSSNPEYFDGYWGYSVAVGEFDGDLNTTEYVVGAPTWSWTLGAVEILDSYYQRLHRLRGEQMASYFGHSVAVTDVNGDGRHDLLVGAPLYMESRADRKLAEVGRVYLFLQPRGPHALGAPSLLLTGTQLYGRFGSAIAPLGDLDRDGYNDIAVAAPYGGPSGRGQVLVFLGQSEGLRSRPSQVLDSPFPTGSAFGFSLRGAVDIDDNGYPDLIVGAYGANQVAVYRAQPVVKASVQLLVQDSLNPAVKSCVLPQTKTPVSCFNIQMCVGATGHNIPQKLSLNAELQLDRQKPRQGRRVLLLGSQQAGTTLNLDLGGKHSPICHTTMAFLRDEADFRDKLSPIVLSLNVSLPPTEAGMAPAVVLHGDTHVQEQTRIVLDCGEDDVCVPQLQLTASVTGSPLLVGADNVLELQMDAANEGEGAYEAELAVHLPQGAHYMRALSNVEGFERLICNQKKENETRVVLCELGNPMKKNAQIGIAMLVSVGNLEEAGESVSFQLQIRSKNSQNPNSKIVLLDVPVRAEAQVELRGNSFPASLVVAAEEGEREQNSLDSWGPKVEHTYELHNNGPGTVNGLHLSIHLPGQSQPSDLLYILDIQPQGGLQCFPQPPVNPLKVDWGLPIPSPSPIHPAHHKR
T1 sequence (P05106 27-788): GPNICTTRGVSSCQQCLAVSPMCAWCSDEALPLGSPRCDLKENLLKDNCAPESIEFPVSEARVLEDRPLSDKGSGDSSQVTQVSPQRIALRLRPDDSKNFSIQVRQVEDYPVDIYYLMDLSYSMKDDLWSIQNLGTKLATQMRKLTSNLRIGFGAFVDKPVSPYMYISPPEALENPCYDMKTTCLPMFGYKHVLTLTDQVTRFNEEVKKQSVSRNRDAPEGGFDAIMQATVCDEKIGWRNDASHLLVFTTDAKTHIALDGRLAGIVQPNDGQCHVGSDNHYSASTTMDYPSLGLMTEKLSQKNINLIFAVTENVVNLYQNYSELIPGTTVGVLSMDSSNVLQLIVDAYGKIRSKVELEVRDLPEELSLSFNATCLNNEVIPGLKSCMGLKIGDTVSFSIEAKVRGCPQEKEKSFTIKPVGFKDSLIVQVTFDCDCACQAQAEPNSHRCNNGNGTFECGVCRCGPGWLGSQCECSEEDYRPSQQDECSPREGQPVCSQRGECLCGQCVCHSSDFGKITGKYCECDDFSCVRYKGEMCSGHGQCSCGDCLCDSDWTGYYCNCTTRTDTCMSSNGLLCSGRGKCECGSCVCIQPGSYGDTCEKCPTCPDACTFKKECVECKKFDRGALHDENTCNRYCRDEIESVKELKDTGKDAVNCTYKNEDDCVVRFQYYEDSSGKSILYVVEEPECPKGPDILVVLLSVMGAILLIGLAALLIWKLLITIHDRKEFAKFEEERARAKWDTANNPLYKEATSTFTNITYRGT
Procedure: In the following assay, GPIIb-IIIa is prepared in purified form, by a method such as described by Fitzgerald, L. A., et al., Anal Biochem (1985) 151:169-177, (the disclosure of which is incorporated herein by reference). GPIIb-IIIa is coated onto microtiter plates. The coated support is then contacted with fibrinogen and with the test material (e.g., compounds of Formula I) and incubated for a sufficient time to permit maximal binding of fibrinogen to the immobilized GPIIb-IIIa. Fibrinogen is typically provided at a concentration of about 5-50 nM and the test material can, if desired, be added at a series of dilution. Typical incubations are 2 to 4 hours at 25° C., the time and temperature being interdependent.
After incubation, the solution containing the fibrinogen and test material is removed and the level of binding of fibrinogen measured by quantitating bound fibrinogen to GPIIb-IIIa. Any suitable means of detection may be used, but it is convenient to employ labeled fibrinogen, for example using biotinylated labels. Such methods are well known in the art.
Purified platelet GPIIb-IIIa receptor was prepared as described by Fitzgerald, L. A., et al., Anal Biochem (1985) 151:169-177 (1985). Vitronectin receptor was prepared as described by Smith, J. W., J. Biol Chem (1988) 263:18726-18731. After purification, the receptors were stored in 0.1% Triton X-100 at 0.1-1.0 mg/ml.
The receptors were coated to the wells of 96-well flat-bottom ELISA plates (Linbro EIA-Plus microtiter plate, Flow Laboratories) after diluting 1:200 with a solution of 20 mM Tris-HCl, 150 mM NaCl, 1 mM CaCl2, pH 7.4, to reduce the Triton X-100 concentration to below its critical micellar concentration and adding an aliquot of 100 ul to each well. The wells were all allowed to incubate overnight at 4° C., and then aspirated to dryness. Additional sites were blocked by the addition of bovine serum albumin (BSA) at 35 mg/ml in the above buffer for 2 hours at 30° C. to prevent nonspecific binding. The wells were then washed once with binding buffer ([…] Tris-HCl, 100 mM NaCl 2 mM CaCl2, 1 mg/ml BSA).
The corresponding ligands (fibrinogen, von Willebrand Factor, or vitronectin) were conjugated to biotin using commercially available reagents and standard protocols. The labeled ligands were added to the receptor-coated wells at final concentration of 10 nM (100 ul/well) and incubated for 3 hours at 25° C. in the presence or absence of the test samples. After incubation, the wells are aspirated to dryness and bound ligand is quantitated.
The bound protein is detected by the addition of antibiotin antibody conjugated to alkaline phosphatase followed by addition of substrate (p-nitrophenyl phosphate), and determination of the optical density of each well at […]. Decreased color development is observed in wells incubated with test samples which inhibit binding of ligand to receptor.

[1] = tested on: human platelet-rich plasma; assay: Platelet aggregation assay (Aggregation-Human PRP/ADP); format: cell-based; details: 1 min; human platelet-rich plasma incubated with compound 1 minute at 37° C.; ADP-induced aggregation; read-out: Agg: Human PRP/ADP IC50uM
Procedure: Platelet-rich plasma was prepared from healthy human volunteers for use in determining inhibition of platelet aggregation by the compounds.
Platelet-rich plasma was prepared at room temperature by centrifugation of the citrated whole blood at 100×g for 12 minutes. The platelet rich plasma contained approximately 200-400,000 platelets/μl.
Platelet-poor plasma was prepared by centrifugation of citrated whole blood at 12,000×g for 2 minutes.
Platelet aggregation was assayed in a 4-channel platelet aggregation profiler (PAP-4, Biodata, Hatboro, Pa.) according to the manufacturers directions. Inhibition of platelet aggregation was studied by adding varying amounts of […] to stirred human platelet-rich plasma. Specifically, the human platelet-rich plasma was incubated with the compound being tested for 1 minute at 37° C. prior to the addition of a variety of aggregating agents most often ADP 5 μM, but also 1 μg/ml collagen, 1 μM U46619 and 0.3 μM platelet activating factor.

Structure (SMILES)	IC50 (GPIIb-IIIa) [nM]	IC50 [1] [µM]
N=C(N)c1ccc(COc2ccc3c(c2)CCN(C(CC(=O)O)C(=O)NCc2ccccc2)C3=O)cc1 (racemic) [Example 6, (+−)-6-[[4-(Aminoiminomethyl)phenyl]methoxy]-3,4-dihydro-1-oxo-beta-[[(phenylmethyl)amino]carbonyl]-2(1H)-isoquinoline Propanoic Acid Trifluoroacetate]	50	0.7
COc1ccc(CCNC(=O)C(CC(=O)O)N2CCc3cc(OCc4ccc(C(=N)N)cc4)ccc3C2=O)cc1 (racemic) [Example 7, (+−)-6-[[4-(Aminoiminomethyl)phenyl]methoxy]-3,4-dihydro-1-oxo-beta-[[(4-methoxyphenyl Ethyl)amino]carbonyl]-2(1H)-isoquinoline Propanoic Acid Trifluoroacetate]	15	2
CNC(=O)C(CC(=O)O)N1CCc2cc(OCc3ccc(C(=N)N)cc3)ccc2C1=O (racemic) [Example 8, (+−)-6-[[4-(Aminoiminomethyl)phenyl]methoxy]-3,4-dihydro-beta-[(methylamino)carbonyl]-1-oxo-2(1H)-isoquinoline Propanoic Acid Trifluoroacetate]	80	0.55
N=C(N)c1ccc(COc2ccc3c(c2)CCN(C(CC(=O)O)C(=O)NCCC(=O)O)C3=O)cc1 (racemic) [Example 9, (+−)-6-[[4-(Aminoiminomethyl)phenyl]methoxy]-beta-[[(2-carboxyethyl)amino]carbonyl-3,4-dihydro-1-oxo-2(1H)-isoquinoline Propanoic Acid Trifluoroacetate]	85	0.85
CCOCCCC(CC(=O)O)N1CCc2cc(OCc3ccc(C(=N)N)cc3)ccc2C1=O (racemic) [Example 10, (+−)-6-[[4-(Aminoiminomethyl)phenyl]methoxy]-b-(3-ethoxypropyl)-3,4-dihydro-1-oxo-2(1H)-isoquinoline Propanoic Acid Trifluoroacetate]	61	0.47
CCCCC(CC(=O)O)N1CCc2cc(OCc3ccc(C(=N)N)cc3)ccc2C1=O (racemic) [Example 11, (+−)-6-[[4-(Aminoiminomethyl)phenyl]methoxy]-b-butyl-3,4-dihydro-1-oxo-2(1H)-isoquinoline Propanoic Acid Trifluoroacetate]	40	0.6
CCCCCC(CC(=O)O)N1CCc2cc(OCc3ccc(C(=N)N)cc3)ccc2C1=O (racemic) [Example 12, (+−)-6-[[4-(Aminoiminomethyl)phenyl]methoxyl]-3,4-dihydro-1-oxo-b-pentyl-2(1H)-isoquinolinepropanoic Acid Trifluoroacetate]	24	0.57
CCC(CC(=O)O)N1CCc2cc(OCc3ccc(C(=N)N)cc3)ccc2C1=O (racemic) [Example 14, (+−)-6-[[4-(Aminoiminomethyl)phenyl]methoxy]b-ethyl-3,4-dihydro-1-oxo-2(1H)-isoquinoline Propanoic Acid Trifluoroacetate]	45	0.4
CCCC(CC(=O)O)N1CCc2cc(OCc3ccc(C(=N)N)cc3)ccc2C1=O (racemic) [Example 15, (+−)-6-[[4-(Aminoiminomethyl)phenyl]methoxy]-3,4-dihydro-1-oxo-b-propyl-2 (1H)-isoquinoline Propanoic Acid Trifluoroacetate]	500	0.23
N=C(N)c1ccc(COc2ccc3c(c2)CCN(C(CC(=O)O)c2ccccc2)C3=O)cc1 (racemic) [Example 16, (+−)-6-[[4-(Aminoiminomethyl)phenyl]methoxy]-3,4-dihydro-1-oxo-b-phenyl-(1H)-isoquinoline Propanoic Acid Trifluoroacetate]	7	0.2
N=C(N)c1ccc(COc2ccc3c(c2)CCC(CC(=O)O)C3)cc1 (racemic) [Example 20, (+−)-6-[[(4-Aminoimidomethyl)phenyl]methoxy]-1,2,3,4-tetrahydronapthylene-2-acetic Acid Trifluoroacetate]	300	20
N=C(N)c1ccc(COc2ccc3c(c2)CCC(CC(=O)O)O3)cc1 (racemic) [Example 46, rac-(6-(4-(Aminoiminomethyl)phenylmethoxy)-3,4-dihydro-2H-1-benzopyran-2-yl)acetic Acid Trifluoroacetate]	3.3	2.5
CCOC(=O)CC1CCc2cc(NC(=O)c3ccc(C(=N)N)cc3)ccc2O1 (racemic) [Example 47, Hydrochloride]	770	0.24
N=C(N)c1ccc(C(=O)Nc2ccc3c(c2)CCC(CC(=O)O)O3)cc1 (racemic) [Example 48, rac-(6-(N-(4-(Aminoiminomethyl)benzoyl)amino)-3,4-dihydro-2H-1-benzopyran-2-yl)acetic Acid]	4	0.066
